From patent US10400008B2, “Modulators of the SRC-kinase activity for preventing or treating metastatic cancer” (Cancer Research Technology Limited, priority 2013, dated 2019)
Where “and” joins values, the source holds several entries; their conditions need not be identical. Equal entries are not always repeated. Entries after “also recorded” stand apart in the source; their conditions may differ.

Legend:
MMP-9 = MMP-9 release from HT1080 cells (fluorescent AK411 kit); assay type: cell-based, human; conditions: 6 h, peptide 1 nM
Method: FIG. 4: The S1 peptide inhibits EGF-stimulated migration and MMP-9 secretion in HT1080 cells. Quiescent HT1080 cells were used. In A, cells were left untreated or treated for 6 h with the indicated compounds. MMP-9 release was assayed as described in Methods. In B, cells were allowed to migrate for 6 h in Trans-well filters in the absence or presence of the indicated compounds. Migrated cells were stained and counted as reported in Methods. In A and B, data were expressed as relative increase. Mean and SEM is shown. n represents the number of experiments. In C, cells were wounded and then left unstimulated or stimulated for 6 h with the indicated compounds. Contrast-phase images are representative of 3 different experiments, each performed in duplicate.
BrdU incorporation, migration and wound healing analysis were done as described (3, 11). MMP-9 activity was assayed (12, 13), using the fluorescent AK411 kit (BIOMOL Res. Lab.).

PC-3 cells [1] = experiment: Orthotopic PC-3 prostate cancer model: tumor volume and lymph node metastases; assay type: in vivo, BALB/c nude mice; conditions: for incidence of lymph node metastasis: vs vehicle; for Total tumor volumes during the study: animals 2.x (0.04 mg/kg by heads of Tables 2-3)
Method: Six week-old immunodeficient BALB/c nude mice were allocated to six 15-mice groups according to the body weight. PC-3 cells were inoculated orthotopically into prostates of the mice. Dosing (s.c.) was started at study day 1 and continued daily for 28 days.
Mice were weighed twice a week, and after 4 weeks, mice were sacrificed. Gross necropsy was performed to all animals at the end of the study, and all macroscopic signs were recorded. Volume of the prostate tumors was measured and prostate as well as prostate draining lymph nodes were collected for histology. The number of metastasis in lymph nodes was determined under microscope.
The 0.01 mg/ml, 0.1 mg/ml, 1 mg/ml, 2.5 mg/ml and 5 mg/ml dosing suspensions were prepared from test peptide VAL001 by dilution to PBS. […] New dosing suspensions were prepared every week.
An animal model was used that can be effectively used for testing the effects of cancer drug candidates on the primary tumor growth in prostate microenvironment. In this model, human prostate cancer cells are inoculated into prostate of 4-5 week old male BALB/c nude mice. This mouse strain is immunodeficient, allowing rapid growth and spread of the human cancer cells. Within four weeks after the inoculation, animal develop large tumor to prostate and metastases to regional iliac and sacral lymph nodes. The animals are sacrificed at 4 weeks after inoculation, and their prostate with tumor and regional lymph nodes are collected for further histomorphometric analysis.
Male BALB/c nude mice (BALB/c OlaHsd-Foxn1^nu, obtained from Harlan, The Netherlands) were used for this study. The age of the animals was 6-7 weeks, and their body weights were approximately 16-23 g at the beginning of the study. The mice were specific pathogen free (SPF) and isolator-reared animals. Correct age and good clinical health were qualifications for the study. The acclimatization period for the mice was 4 days. Allocation to groups was performed by randomization procedure based on body weight. The animals were marked with ear marks. For orthotopic inoculations the mice were anesthetized with inhalation of isoflurane. Analgesia was provided before and 2 days after the orthotopic inoculation with buprenorphine: 0.1 mg/kg, s.c.
At the end of the study, the animals were weighed and sacrificed with cervical dislocation under anesthesia. Necropsy was carried out in all animals. Macroscopic findings were recorded on the follow-up forms. Tissue samples from prostate with tumor and lymph nodes were collected for histology and number of metastases in lymph nodes was determined.
Statistical analysis was performed with R: A Language and Environment for Statistical Computing (version 2.14.2; R Development Core Team, Vienna, Austria). The mean and standard deviation of the body weights and the tumor volumes at sacrifice were determined. Normality of the distributions and homogeneity of variance were checked before further analyses. In case of violating these assumptions, either log transformation or other appropriate transformation (e.g. square root, reciprocal) was applied. If the assumptions were fulfilled as such or after transformation, one-way ANOVA was used to study if the values obtained between the groups were statistically different (with p<0.05). If differences were found, Tukey's HSD test was used for pairwise comparison between all groups. If the assumptions were not fulfilled even after the transformations described above, the non-parametric Kruskal-Wallis test followed by Mann-Whitney U-test were used.
The statistical analysis of incidence of lymph node metastases was done using Fisher's exact test as one-sided test in which the null hypothesis reflected the assumption that the treatment […].

PC-3 cells [2] = experiment: PC-3 cell proliferation, WST-1; assay type: cell-based, human; conditions: 100 pM-1 μM, WST-1 at days 3, 5, 7, 9; statistically significant with all doses above 100 pM
Method: We have studied the effects of Val201 on cell proliferation of the ER positive human prostate cancer cell line PC-3 in vitro and growth and metastatis in vivo in an orthotopic xenograft model. The proliferation effects were studied for 100 pM, 1 nM, 10 nM, 100 nM and 1 μM concentrations of VAL201 by measuring WST-1 values at days 3, 5, 7 and 9. Groups with vehicle and 1 μM gemcitabine as reference compound were included in the study. The xenograft study was performed with 6-7 week-old immunodeficient BALB/c nude mice that were allocated to 6 groups (with n=15/group) according to the body weight, one group receiving vehicle and the others VAL201 at doses 0.04, 0.4, 4, 10 and 20 mg/kg. PC-3 cells in Matrigel were inoculated orthotopically into the prostate. Subcutaneous dosing was started at day 1 and continued daily for 28 days. The mice were weighed twice a week. Orthotopic tumors were measured by calliper and the prostate and the regional lymph nodes were harvested at sacrifice. Metastases in lymph nodes were determined from HE stained paraffin sections.

endometriosis lesion = experiment: In-vivo model of endometriosis (K-ras transgenic donor tissue in wild-type animals), first study; parameters: species or system mice; conditions: injected for 21 days, four treated animals
Method: In a first study, a total of 4 treatment and 5 control animals were generated in a novel in-vivo model of endometriosis (Research Horizons, University of Cambridge, 2009 Issue 8, GB 0715635.9) K-rasV12/Ah-Cre transgenic mice were crossed with Rosa26R mice to generate KrasV12+/−/Ah-Cre+/−/ROSA26R-LacZ+/− transgenic mice. The F1 offspring were inbred to generate F2 K-rasV12+/−/Ah-Cre+/+/ROSA26R-LacZ+/+ transgenic mice. The presence of the transgenes was determined by PCR using gene specific primers for K-ras, Cre and Rosa26R-LacZ. Tissue was collected from donor animals previously treated with hormones etc. and was divided between wild-type animals that were then injected with drug or vehicle for 21 days.

[3] = molecular target: AR association with Src-SH3 domain (Homo sapiens, UniProt P12931); conditions: androgen-challenged LNCaP cells, reference 10; cited from earlier work
Sequence of AR association with Src-SH3 domain (P12931 2-536 limits assumed): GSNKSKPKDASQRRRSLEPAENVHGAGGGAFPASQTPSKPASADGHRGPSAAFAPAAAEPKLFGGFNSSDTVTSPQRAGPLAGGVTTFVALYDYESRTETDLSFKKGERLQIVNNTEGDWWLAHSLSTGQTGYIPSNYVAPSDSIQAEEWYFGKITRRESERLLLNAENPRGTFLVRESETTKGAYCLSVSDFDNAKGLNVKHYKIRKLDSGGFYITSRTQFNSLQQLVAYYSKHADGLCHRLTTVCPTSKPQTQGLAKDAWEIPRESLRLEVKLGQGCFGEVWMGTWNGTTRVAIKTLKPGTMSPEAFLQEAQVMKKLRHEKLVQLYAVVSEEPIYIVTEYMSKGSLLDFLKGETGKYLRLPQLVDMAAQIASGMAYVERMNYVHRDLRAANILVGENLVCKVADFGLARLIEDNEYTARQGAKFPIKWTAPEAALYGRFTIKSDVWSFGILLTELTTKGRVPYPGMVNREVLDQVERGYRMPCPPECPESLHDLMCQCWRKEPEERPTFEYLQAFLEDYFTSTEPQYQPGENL

What does the source list for Ac-PPPHPHARIK-NH2 [VAL001]?
EGF-stimulated MMP-9 secretion (MMP-9): inhibits; inhibition of the development of lymph node metastases (PC-3 cells [1]; 0.04 mg/kg s.c. daily 28 days): 50%; incidence of lymph node metastasis (PC-3 cells [1]; 0.04 mg/kg s.c. daily 28 days, Fisher's exact test p=0.01643): statistically significantly less; also recorded: inhibited statistically significantly; inhibition of the development of lymph node metastases (PC-3 cells [1]; 0.4 mg/kg s.c. daily 28 days): 50%; incidence of lymph node metastasis (PC-3 cells [1]; 0.4 mg/kg s.c. daily 28 days, Fisher's exact test p=0.03913): statistically significantly less; also recorded: inhibited statistically significantly; decrease in tumor volume (PC-3 cells [1]; 0.4 mg/kg s.c. daily 28 days, not statistically significant): 35%; statistically significant effects on orthotopic tumor growth (PC-3 cells [1]; 0.04-20 mg/kg s.c. daily 28 days): not observed; tumor volumes between the treatment groups (PC-3 cells [1]; 0.04-20 mg/kg s.c. daily 28 days, at sacrifice): no statistically significant differences; Total tumor volumes during the study (PC-3 cells [1]; day 5, single animals): 22.3 and 11.5 and 21.5 and 16.9 and 26.7 and 29.3 (2×) and 27.8; Total tumor volumes during the study (PC-3 cells [1]; day 7, single animals, in mm³ (unit assumed)): 21.1 and 7.8 and 17.8 and 22.0 and 16.9 and 18.3 and 31.2 and 29.6; Total tumor volumes during the study (PC-3 cells [1]; day 9, single animals, in mm³ (unit assumed)): 28.2 and 18.2 and 32.4 and 21.3 and 29.6 and 57.8 and 76.4 and 34.4; Total tumor volumes during the study (PC-3 cells [1]; day 12, single animals, in mm³ (unit assumed)): 51.3 and 20.1 and 39.6 and 56.1 and 24.6 and 57.0 and 116.3 and 70.3; Total tumor volumes during the study (PC-3 cells [1]; day 14, single animals, in mm³ (unit assumed)): 71.8 and 55.8 and 72.5 and 65.8 and 54.7 and 114.0 and 176.1 and 106.7; Total tumor volumes during the study (PC-3 cells [1]; day 16, single animals, in mm³ (unit assumed)): 87.7 and 70.9 and 140.3 and 85.4 and 62.6 and 167.3 and 183.2 and 112.1; Total tumor volumes during the study (PC-3 cells [1]; day 19, single animals, in mm³ (unit assumed)): 202.0 and 163.3 and 186.2 and 140.9 and 104.4 and 181.7 and 332.0 and 227.3; Total tumor volumes during the study (PC-3 cells [1]; day 21, single animals, in mm³ (unit assumed)): 182.3 and 152.1 and 196.2 and 139.5 and 120.6 and 278.5 and 365.1 and 240.1; Total tumor volumes during the study (PC-3 cells [1]; day 23, single animals, in mm³ (unit assumed)): 158.4 and 95.0 and 289.5 and 181.8 and 127.8 and 278.8 and 386.3 and 323.8 and 345.6; Total tumor volumes during the study (PC-3 cells [1]; day 26, single animals, in mm³ (unit assumed)): 277.2 and 233.9 and 254.0 and 243.7 and 239.4 and 381.2 and 618.5 and 328.7 and 518.9; Total tumor volumes during the study (PC-3 cells [1]; day 29, single animals, in mm³ (unit assumed)): 382.9 and 204.8 and 258.0 and 216.8 and 245.1 and 418.0 and 750.0 and 430.6 and 288.0; PC-3 cell proliferation (PC-3 cells [2]): dose-dependent inhibition; absence of lesion following treatment (endometriosis lesion): three showed complete absence of lesion; AR association with Src-SH3 domain [3]: competes
